# Patent US8017652B2, “Activators of peroxisome proliferator-activated receptors” (Kowa Company Ltd., priority 2000, dated 2011)
# What was measured:
# [1] = tested on: PPAR γ2 mRNA; test: Expression of PPAR γ2 mRNA in human cell line (RT-PCR); assay type: cell-based; details: Caco-2 cells, serum-free medium, 10 μM, 0-5 hours after addition
# Experimental: (§1) Caco-2 cells (derived from colon cancer) as a human cell line were cultured at 37° C. in RPMI-1640 medium containing 10% fetal calf serum in the presence of 5% C02. The medium was then replaced with serum-free RPMI-1640 medium and the cells were cultured for 48 hours. In order to examine the effect of NIK-333, a solution of NIK-333 in ethanol was added at a final concentration of 10 μM. At 0, 0.5, 1, 2 and 5 hours after the addition, RNA was extracted to observe. mRNA for PPAR α, PPAR γ1 and PPAR γ2 by the RT-PCR method.
# [2] = tested on: hepatoma; details: clinical, cited from earlier work
# [3] = tested on: PPAR γ1 mRNA; test: Expression of PPAR γ1 mRNA in human cell line (RT-PCR); assay type: cell-based; details: Caco-2 cells, serum-free medium, 10 μM, 0-5 hours after addition, FIG. 2
# Experimental: as §1
# [4] = tested on: PPAR α mRNA; test: Expression of PPAR α mRNA in human cell line (RT-PCR); assay type: cell-based; details: Caco-2 cells, serum-free medium, 10 μM, 0-5 hours after addition, FIG. 1
# Experimental: as §1
# [5] = target: T1, PPAR α (Homo sapiens, UniProt Q07869); test: Ligand activity for PPAR α (PPRE luciferase reporter in COS-7 cells); assay type: cell-based; details: 10 μM, 24 hours, FIG. 3; for luciferase activity, PPAR α expression vector not introduced (−) / luciferase activity, PPAR α expression vector introduced (+): firefly luciferase standardized by renilla luciferase; for luciferase activity, PPAR α expression vector introduced (+): RXR α + PPAR α + PPRE reporter
# T1 construct: expressed in transfected cells; host or cells: COS-7 (monkey kidney)
# T1 sequence (Q07869 1-468): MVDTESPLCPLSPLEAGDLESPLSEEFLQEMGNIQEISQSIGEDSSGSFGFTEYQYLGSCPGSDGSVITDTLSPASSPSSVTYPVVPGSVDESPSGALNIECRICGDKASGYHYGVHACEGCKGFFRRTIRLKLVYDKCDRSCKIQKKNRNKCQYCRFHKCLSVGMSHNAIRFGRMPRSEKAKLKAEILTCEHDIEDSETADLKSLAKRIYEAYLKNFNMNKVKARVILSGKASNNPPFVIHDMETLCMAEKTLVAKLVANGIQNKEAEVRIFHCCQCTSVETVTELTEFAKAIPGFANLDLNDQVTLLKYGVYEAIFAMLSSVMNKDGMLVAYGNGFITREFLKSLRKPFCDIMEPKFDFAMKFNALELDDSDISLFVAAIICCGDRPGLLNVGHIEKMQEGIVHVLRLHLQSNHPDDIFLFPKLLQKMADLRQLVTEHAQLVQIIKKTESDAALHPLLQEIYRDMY
# T1 sequence (P19793 1-462 partner): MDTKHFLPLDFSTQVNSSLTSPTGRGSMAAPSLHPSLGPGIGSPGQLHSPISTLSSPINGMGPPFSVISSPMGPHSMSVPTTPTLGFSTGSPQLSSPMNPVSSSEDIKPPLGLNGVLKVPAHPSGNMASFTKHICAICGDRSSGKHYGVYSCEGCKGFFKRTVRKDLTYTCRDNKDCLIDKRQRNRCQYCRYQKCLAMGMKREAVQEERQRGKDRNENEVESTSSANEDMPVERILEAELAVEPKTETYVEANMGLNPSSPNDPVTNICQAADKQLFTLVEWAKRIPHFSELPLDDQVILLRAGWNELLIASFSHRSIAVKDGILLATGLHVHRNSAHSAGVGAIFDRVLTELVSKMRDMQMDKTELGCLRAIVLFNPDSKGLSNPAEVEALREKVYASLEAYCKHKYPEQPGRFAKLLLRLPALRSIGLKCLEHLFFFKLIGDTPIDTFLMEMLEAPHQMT
# Experimental: COS-7 cells, a cell line derived from monkey kidney, were cultured at 37° C. in DMEM medium containing 10% fetal calf serum in the presence of 5% CO2. Then, expression vectors of RXR α (retinoic acid X receptor α) and PPAR α, and a reporter vector incorporated with PPRE (peroxisome proliferator-responsive element) as a PPAR-responsive element were cotransfected into the cells, and the cells were cultured for 24 hours. In order to examine the effect of NIK-333, a solution of NIK-333 or Wy-14643(selective agonist of PPAR α) in ethanol was added at a final concentration of 10 μM. After cultivation for 24 hours, the activity of firefly luciferase was measured. The measured values were represented as values standardized by using the renilla luciferase activity.
smiles,measurement,setting,value
"CC(C)=CCC/C(C)=C/CC/C(C)=C/C=C/C(C)=C/C(=O)O [NIK-333, (2E,4E,6E,10E)-3,7,11,15-Tetramethyl-2,4,6,10,14-hexadecapentaenoic acid]",expression of PPAR γ2 mRNA,[1],not observed
same,recurrence of hepatoma after radical treatment,[2]; long-term administration for one-year,significantly inhibited recurrence of hepatoma
same,liver function failure or other adverse effect during the administration,[2]; long-term administration,almost no liver function failure or almost no other adverse effect
same,expression of PPAR γ1 mRNA,[3],also observed from 0.5 hour after the addition
same,expression of PPAR α mRNA,[4],observed from 0.5 hour after the addition
same,increasing action of ligand activity compared with Wy-14643,[5],almost equivalent to the action of Wy-14643
same,"luciferase activity, PPAR α expression vector not introduced (−)",[5],failed to increase the luciferase activity
same,"luciferase activity, PPAR α expression vector introduced (+)",[5],increased the luciferase activity
"Cc1cccc(Nc2cc(Cl)nc(SCC(=O)O)n2)c1C [Wy-14643, reference compound]","luciferase activity, PPAR α expression vector not introduced (−)",[5],failed to increase the luciferase activity
same,"luciferase activity, PPAR α expression vector introduced (+)",[5],increased the luciferase activity
